# Test results taken from patent US20020187514A1 (priority 1999, published 2002).
# Experiments:
# [1] = tested on: Cholecystokinin, CCK1 (CCKA); assay: Cholecystokinin, CCK1 (CCKA); [125I]CCK-8; assay type: binding; conditions: 10^−5 M
# [2] = molecular target: Norepinephrine Transporter (Rattus norvegicus, UniProt Q9WTR4); assay: biochemical; assay type: binding; conditions: read-out: Pass 1 (10^−5 M) % Inhibition
# [3] = tested on: Protein Tyrosine Phosphatase, PTP-Cell; assay: Protein Tyrosine Phosphatase, PTP-Cell (Human); substrate pNPP; assay type: biochemical; conditions: 10^−5 M
# Sodium, Site 1 = assay type: binding
# [4] = tested on: Nicotinic (a-bungarotoxin insensitive); assay type: binding; conditions: 10^−5 M
# Dopamine, D2s = molecular target: T1, Dopamine, D2s (Homo sapiens, UniProt P14416); assay: Dopamine, D2s (Human Recombinant); [3H]-Spiperone; assay type: binding; conditions: read-out: Pass 1 (10^−5 M) % Inhibition
# T1 construct: expressed in transfected cells
# GABA A, Agonist Site = assay type: binding
# Vasopressin 1 = molecular target: T2, Vasopressin 1 (Rattus norvegicus, UniProt P30560); assay: biochemical; assay type: binding; conditions: read-out: Pass 1 (10^−5 M) % Inhibition
# T2 construct: no other source notation after assay name denotes animal cell or animal tissue source; from tissue
# Dopamine, D4.4 = molecular target: T3, Dopamine, D4.4 (Homo sapiens, UniProt P21917); assay: biochemical; assay type: binding; conditions: read-out: Pass 1 (10^−5 M) % Inhibition
# T3 construct: expressed in transfected cells
# Orphanin = molecular target: T4, Orphanin (Homo sapiens, UniProt P41146); assay: biochemical; assay type: binding; conditions: read-out: Pass 1 (10^−5 M) % Inhibition
# T4 construct: expressed in transfected cells
# Muscarinic, M5 = molecular target: T5, Muscarinic, M5 (Homo sapiens, UniProt P08912); assay: biochemical; assay type: binding; conditions: read-out: Pass 1 (10^−5 M) % Inhibition
# T5 construct: expressed in transfected cells
# Elastase = molecular target: T6, Elastase (Homo sapiens, UniProt P08246); assay: Elastase (Human); substrate MeO-Suc-Ala-Ala-Pro-Val-pNA; assay type: biochemical; conditions: read-out: Pass 1 (10^−5 M) % Inhibition
# T6 construct: from human cell lines; endogenous in cells
# Leukotrine D4, LTB4 = assay: Leukotrine D4, LTB4; [3H]LTD4; assay type: binding; conditions: 10^−5 M
# [5] = tested on: Vasoactive Intestine Peptide, Non-selective; assay type: binding; conditions: 10^−5 M
# Neuropeptide, NPY1 = Neuropeptide, NPY1 (Homo sapiens, UniProt P25929); assay: Neuropeptide, NPY1 (Human); [125I]PYY; assay type: binding; conditions: read-out: Pass 1 (10^−5 M) % Inhibition
# Neurokinin, NK2 (NKA) = molecular target: T7, Neurokinin, NK2 (NKA) (Homo sapiens, UniProt P21452); assay: biochemical; assay type: binding; conditions: read-out: Pass 1 (10^−5 M) % Inhibition
# T7 construct: expressed in transfected cells
# [6] = tested on: Choline Acetyltransferase; assay: Choline Acetyltransferase; substrate [14C]Acetyl Coenzyme; assay type: biochemical; conditions: 10^−5 M
# Muscarinic, M1 = Muscarinic, M1 (Homo sapiens, UniProt P11229); assay: biochemical; conditions: read-out: Pass 1 (10^−5 M) % Inhibition
# [7] = tested on: Potassium Channel, Ca2+ Act., VI; assay: Potassium Channel, Ca2+ Act., VI; [125I]Apamin; assay type: binding; conditions: 10^−5 M
# GABA Transaminase = assay: GABA Transaminase; substrate [14C]-GABA; assay type: biochemical
# Opiate, Mu [8] = molecular target: T8, Opiate, Mu (Homo sapiens, UniProt P35372); assay: biochemical; assay type: binding; conditions: read-out: Pass 1 (10^−5 M) % Inhibition
# T8 construct: expressed in transfected cells
# Imidazoline, I1 = assay: Imidazoline, I1; [125I]-Clonidine; assay type: binding; conditions: 10^−5 M
# [9] = tested on: Somatostatin, Non-selective; assay: Somatostatin, Non-selective; [125]-Somatostatin-14 (Tyr11); assay type: binding; conditions: 10^−5 M
# Histamine, H2 = molecular target: T9, Histamine, H2 (Cavia porcellus, UniProt P47747); assay: biochemical; assay type: binding; conditions: read-out: Pass 1 (10^−5 M) % Inhibition
# T9 construct: no other source notation after assay name denotes animal cell or animal tissue source; from tissue; host or cells: animal cell or animal tissue, not specified
# Oxytocin = assay type: binding; conditions: 10^−5 M
# Dopamine, D1 = Dopamine, D1 (Homo sapiens, UniProt P21728); assay: biochemical; conditions: read-out: Pass 1 (10^−5 M) % Inhibition
# [10] = tested on: Epidermal Growth Factor, EGF; assay: Epidermal Growth Factor, EGF; [125I]EGF; assay type: binding; conditions: 10^−5 M
# Calcium Channel, Type N = assay type: binding
# Angiotensin II, AT2 = assay type: binding; conditions: 10^−5 M
# Opiate, Delta 2 = molecular target: T10, Opiate, Delta 2 (Homo sapiens, UniProt P41143); assay: Opiate, Delta 2 (Human Recombinant); [3H]-Naltrindole; assay type: binding; conditions: read-out: Pass 1 (10^−5 M) % Inhibition
# T10 construct: expressed in transfected cells
# Acetylcholinesterase = assay: Acetylcholinesterase; substrate Acetylthiocholine; assay type: biochemical
# Opiate, Mu [11] = molecular target: Opiate, Mu (UniProt P33535); assay type: binding
# Purinergic, P2Y = Purinergic, P2Y (Human); [35S]-ATPas; assay type: binding; conditions: 10^−5 M
# Dopamine Transporter = Dopamine Transporter (Cavia porcellus, UniProt H0WCX4); assay: biochemical; assay type: binding, Guinea Pig
# [12] = tested on: Cholecystokinin, CCK2 (CCKB); assay: Cholecystokinin, CCK2 (CCKB); [125I]CCK-8; assay type: binding; conditions: 10^−5 M
# [13] = tested on: Protein Phosphatase, PP2B (Calcineurin); assay: Protein Phosphatase, PP2B (Calcineurin); substrate pNPP; assay type: biochemical; conditions: 10^−5 M
# Cannabinoid, CB2 = molecular target: T11, Cannabinoid, CB2 (Homo sapiens, UniProt P34972); assay: Cannabinoid, CB2 (Human recombinant); [3H]-CP55940; assay type: binding; conditions: read-out: Pass 1 (10^−5 M) % Inhibition
# T11 construct: expressed in transfected cells
# Serotonin, 5HT2C = Serotonin, 5HT2C (UniProt K7GSR7); assay type: binding
# Adrenergic, Alpha 2C = molecular target: T12, Adrenergic, Alpha 2C (Homo sapiens, UniProt P18825); assay: Adrenergic, Alpha 2C (Human Recombinant); [3H]MK-912; assay type: binding; conditions: read-out: Pass 1 (10^−5 M) % Inhibition
# T12 construct: expressed in transfected cells
# Serotonin, 5HT6 = molecular target: T13, Serotonin, 5HT6 (Homo sapiens, UniProt P50406); assay: biochemical; assay type: binding; conditions: read-out: Pass 1 (10^−5 M) % Inhibition
# T13 construct: expressed in transfected cells
# Thromboxane A2 = molecular target: T14, Thromboxane A2 (Homo sapiens, UniProt P21731); assay: Thromboxane A2 (Human); [3H]SQ 29,548; assay type: binding; conditions: read-out: Pass 1 (10^−5 M) % Inhibition
# T14 construct: from human cell lines; endogenous in cells
# [14] = tested on: Inositol Triphosphate, IP3; assay: Inositol Triphosphate, IP3; [3H]IP3; assay type: binding; conditions: 10^−5 M
# [15] = tested on: Glutamate, Chloride Dependent Site; assay: Glutamate, Chloride Dependent Site; [3H]Glutamic Acid; assay type: binding; conditions: 10^−5 M
# Sequence of Dopamine Transporter (H0WCX4 1-619): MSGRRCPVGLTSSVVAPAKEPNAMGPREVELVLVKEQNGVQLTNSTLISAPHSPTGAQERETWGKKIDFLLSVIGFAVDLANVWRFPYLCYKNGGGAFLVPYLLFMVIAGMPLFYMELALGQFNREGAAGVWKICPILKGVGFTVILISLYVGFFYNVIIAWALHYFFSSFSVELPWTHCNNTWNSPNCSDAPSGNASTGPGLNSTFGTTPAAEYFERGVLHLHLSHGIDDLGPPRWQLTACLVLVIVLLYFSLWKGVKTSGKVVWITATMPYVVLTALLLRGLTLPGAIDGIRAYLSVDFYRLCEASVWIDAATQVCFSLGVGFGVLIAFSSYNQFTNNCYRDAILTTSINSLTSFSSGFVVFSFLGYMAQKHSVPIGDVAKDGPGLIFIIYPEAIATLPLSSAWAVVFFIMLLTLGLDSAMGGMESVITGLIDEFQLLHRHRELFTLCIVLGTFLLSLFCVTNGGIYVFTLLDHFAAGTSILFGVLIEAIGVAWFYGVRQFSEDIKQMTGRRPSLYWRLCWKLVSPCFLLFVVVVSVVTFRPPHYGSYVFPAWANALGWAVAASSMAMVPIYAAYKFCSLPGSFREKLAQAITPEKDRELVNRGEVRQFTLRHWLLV
# Sequence of Dopamine, D1 (P21728 whole entry): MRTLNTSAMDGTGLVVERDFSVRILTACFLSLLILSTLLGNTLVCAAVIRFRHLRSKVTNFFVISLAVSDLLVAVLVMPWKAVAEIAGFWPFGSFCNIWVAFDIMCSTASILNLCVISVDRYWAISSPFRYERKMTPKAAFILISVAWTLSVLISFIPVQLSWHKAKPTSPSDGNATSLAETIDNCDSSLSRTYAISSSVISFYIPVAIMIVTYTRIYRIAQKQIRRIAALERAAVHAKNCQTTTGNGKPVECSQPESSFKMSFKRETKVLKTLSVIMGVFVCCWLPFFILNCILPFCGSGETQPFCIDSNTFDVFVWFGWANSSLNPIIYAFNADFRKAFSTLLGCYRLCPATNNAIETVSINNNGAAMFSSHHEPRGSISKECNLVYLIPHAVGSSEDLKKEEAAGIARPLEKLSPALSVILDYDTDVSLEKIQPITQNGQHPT
# T4 sequence (P41146 whole entry): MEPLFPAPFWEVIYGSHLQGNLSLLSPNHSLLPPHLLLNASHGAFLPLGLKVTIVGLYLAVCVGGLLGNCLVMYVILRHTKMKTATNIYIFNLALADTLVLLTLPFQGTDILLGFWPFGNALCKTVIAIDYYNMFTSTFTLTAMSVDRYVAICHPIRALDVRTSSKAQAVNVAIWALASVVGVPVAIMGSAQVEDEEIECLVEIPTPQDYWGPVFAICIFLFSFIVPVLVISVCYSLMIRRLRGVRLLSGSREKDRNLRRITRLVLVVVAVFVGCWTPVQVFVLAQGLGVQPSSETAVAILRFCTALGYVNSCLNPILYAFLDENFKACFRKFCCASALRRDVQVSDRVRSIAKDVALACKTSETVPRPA
# T8 sequence (P35372 whole entry): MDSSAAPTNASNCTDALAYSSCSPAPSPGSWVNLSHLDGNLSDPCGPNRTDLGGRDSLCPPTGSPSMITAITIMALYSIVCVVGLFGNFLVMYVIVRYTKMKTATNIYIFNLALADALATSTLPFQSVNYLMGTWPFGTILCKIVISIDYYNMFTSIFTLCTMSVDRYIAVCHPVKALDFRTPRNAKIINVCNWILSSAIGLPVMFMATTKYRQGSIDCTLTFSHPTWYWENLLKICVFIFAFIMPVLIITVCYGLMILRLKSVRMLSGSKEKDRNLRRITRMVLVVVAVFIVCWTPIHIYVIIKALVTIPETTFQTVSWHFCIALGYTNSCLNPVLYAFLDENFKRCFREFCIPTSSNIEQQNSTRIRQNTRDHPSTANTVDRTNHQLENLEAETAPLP
# T1 sequence (P14416 other isoform, or with tags, fused parts or gaps): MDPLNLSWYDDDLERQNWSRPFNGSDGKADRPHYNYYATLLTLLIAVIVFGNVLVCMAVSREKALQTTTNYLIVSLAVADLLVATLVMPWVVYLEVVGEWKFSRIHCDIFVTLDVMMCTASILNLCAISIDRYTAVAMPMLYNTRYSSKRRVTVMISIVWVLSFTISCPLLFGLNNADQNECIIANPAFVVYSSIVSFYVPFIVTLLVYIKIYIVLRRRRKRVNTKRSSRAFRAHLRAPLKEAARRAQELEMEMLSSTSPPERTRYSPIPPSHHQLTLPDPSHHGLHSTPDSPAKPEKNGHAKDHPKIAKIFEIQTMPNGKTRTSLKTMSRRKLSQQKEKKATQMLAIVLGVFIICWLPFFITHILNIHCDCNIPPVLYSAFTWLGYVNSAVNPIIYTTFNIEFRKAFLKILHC
# T9 sequence (P47747 whole entry): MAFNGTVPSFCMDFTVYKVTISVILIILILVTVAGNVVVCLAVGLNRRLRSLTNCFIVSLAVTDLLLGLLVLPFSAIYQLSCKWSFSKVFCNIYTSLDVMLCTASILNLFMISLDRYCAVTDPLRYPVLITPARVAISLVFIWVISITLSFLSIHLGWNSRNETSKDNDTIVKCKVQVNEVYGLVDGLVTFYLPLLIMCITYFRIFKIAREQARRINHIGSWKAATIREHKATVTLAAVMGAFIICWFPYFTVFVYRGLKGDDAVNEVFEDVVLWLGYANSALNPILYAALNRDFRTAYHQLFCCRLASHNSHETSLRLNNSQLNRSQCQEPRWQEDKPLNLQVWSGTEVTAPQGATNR
# Sequence of Muscarinic, M1 (P11229 whole entry): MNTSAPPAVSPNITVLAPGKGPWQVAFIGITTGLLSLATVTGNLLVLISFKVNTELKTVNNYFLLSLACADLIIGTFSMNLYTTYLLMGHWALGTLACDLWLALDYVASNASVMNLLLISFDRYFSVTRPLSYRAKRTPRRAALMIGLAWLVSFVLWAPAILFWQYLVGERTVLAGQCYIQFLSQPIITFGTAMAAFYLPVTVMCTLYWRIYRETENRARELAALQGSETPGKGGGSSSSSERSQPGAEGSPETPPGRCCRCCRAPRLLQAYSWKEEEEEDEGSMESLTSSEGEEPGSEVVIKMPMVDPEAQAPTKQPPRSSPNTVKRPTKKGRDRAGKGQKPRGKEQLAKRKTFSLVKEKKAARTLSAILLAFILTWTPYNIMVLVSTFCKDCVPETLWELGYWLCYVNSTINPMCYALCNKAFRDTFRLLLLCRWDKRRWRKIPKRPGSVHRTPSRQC
# T5 sequence (P08912 whole entry): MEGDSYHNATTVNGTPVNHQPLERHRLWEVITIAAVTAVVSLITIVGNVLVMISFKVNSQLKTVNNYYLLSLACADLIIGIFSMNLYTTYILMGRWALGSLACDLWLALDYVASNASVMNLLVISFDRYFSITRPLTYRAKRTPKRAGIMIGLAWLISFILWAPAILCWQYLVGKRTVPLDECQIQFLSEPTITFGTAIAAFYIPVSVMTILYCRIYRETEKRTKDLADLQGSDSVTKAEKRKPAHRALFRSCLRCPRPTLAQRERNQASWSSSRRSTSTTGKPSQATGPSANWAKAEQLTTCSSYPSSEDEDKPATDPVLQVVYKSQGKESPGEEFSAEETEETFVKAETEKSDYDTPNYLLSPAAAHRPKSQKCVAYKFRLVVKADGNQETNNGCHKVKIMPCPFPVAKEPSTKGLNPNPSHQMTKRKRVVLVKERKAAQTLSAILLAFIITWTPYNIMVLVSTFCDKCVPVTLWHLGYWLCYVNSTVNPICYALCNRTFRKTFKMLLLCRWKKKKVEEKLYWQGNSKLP
# T10 sequence (P41143 whole entry): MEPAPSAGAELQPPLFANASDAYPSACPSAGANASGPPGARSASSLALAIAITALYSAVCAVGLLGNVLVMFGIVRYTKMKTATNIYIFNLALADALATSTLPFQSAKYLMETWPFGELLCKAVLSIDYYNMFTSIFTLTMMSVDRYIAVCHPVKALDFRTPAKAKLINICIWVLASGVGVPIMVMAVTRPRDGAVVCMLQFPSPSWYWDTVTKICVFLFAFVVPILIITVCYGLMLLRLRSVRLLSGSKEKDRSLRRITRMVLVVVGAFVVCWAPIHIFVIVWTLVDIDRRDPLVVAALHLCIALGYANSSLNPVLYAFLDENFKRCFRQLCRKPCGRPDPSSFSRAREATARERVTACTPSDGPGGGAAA
# Sequence of Neuropeptide, NPY1 (P25929 whole entry): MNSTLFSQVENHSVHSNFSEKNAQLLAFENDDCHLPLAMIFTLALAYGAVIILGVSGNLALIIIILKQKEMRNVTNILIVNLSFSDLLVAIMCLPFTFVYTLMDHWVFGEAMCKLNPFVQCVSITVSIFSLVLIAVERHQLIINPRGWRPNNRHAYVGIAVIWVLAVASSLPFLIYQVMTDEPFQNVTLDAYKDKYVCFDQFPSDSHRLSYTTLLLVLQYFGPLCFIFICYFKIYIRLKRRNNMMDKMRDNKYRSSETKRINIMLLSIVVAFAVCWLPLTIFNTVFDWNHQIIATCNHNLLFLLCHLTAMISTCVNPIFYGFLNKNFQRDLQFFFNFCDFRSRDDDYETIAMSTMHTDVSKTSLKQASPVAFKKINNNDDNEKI
# Sequence of Norepinephrine Transporter (Q9WTR4 1-597): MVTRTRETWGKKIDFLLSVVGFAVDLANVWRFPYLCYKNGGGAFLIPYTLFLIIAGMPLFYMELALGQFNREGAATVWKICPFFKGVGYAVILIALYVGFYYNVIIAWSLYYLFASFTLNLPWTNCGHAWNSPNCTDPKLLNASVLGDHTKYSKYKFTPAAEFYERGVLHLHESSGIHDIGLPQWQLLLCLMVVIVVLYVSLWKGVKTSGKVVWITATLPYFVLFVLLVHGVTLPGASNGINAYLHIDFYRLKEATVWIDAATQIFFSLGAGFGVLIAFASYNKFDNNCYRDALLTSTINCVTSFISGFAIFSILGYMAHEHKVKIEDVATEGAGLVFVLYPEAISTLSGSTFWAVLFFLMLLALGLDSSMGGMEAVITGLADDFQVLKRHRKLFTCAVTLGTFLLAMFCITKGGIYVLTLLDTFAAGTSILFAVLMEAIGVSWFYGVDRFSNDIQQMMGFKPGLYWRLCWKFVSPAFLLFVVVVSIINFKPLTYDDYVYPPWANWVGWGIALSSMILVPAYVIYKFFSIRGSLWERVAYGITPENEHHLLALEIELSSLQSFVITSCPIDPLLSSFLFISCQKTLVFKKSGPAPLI
smiles,measurement,setting,value
COC(=O)[C@H]1[C@@H](OC(=O)c2ccccc2)C[C@@H]2CC[C@H]1N2C [cocaine],Pass 1 (10^−5 M) % Inhibition,[1],11.15%
same,inhibition at 10 µM,[2],60%
same,Pass 1 (10^−5 M) % Inhibition,[3],−17.63%
same,Pass 1 (10^−5 M) % Inhibition,"Sodium, Site 1",2.74%
same,Pass 1 (10^−5 M) % Inhibition,[4],12.28%
same,inhibition at 10 µM,"Dopamine, D2s",30.6%
same,Pass 1 (10^−5 M) % Inhibition,"GABA A, Agonist Site",5.81%
same,inhibition at 10 µM,Vasopressin 1,0.98%
same,inhibition at 10 µM,"Dopamine, D4.4",18.8%
same,inhibition at 10 µM,Orphanin,32.3%
same,inhibition at 10 µM,"Muscarinic, M5",6.01%
same,inhibition at 10 µM,Elastase,-11.2%
same,Pass 1 (10^−5 M) % Inhibition,"Leukotrine D4, LTB4",−17.11%
same,Pass 1 (10^−5 M) % Inhibition,[5],30.71%
same,inhibition at 10 µM,"Neuropeptide, NPY1",26.6%
same,inhibition at 10 µM,"Neurokinin, NK2 (NKA)",13.7%
same,Pass 1 (10^−5 M) % Inhibition,[6],8.25%
same,inhibition at 10 µM,"Muscarinic, M1",23.3%
same,Pass 1 (10^−5 M) % Inhibition,[7],11.04%
same,Pass 1 (10^−5 M) % Inhibition,GABA Transaminase,25.43%
same,inhibition at 10 µM,"Opiate, Mu [8]",3.08%
same,Pass 1 (10^−5 M) % Inhibition,"Imidazoline, I1",−0.78%
same,Pass 1 (10^−5 M) % Inhibition,[9],−3.54%
same,inhibition at 10 µM,"Histamine, H2",28.8%
same,Pass 1 (10^−5 M) % Inhibition,Oxytocin,−4.65%
same,inhibition at 10 µM,"Dopamine, D1",17.5%
same,Pass 1 (10^−5 M) % Inhibition,[10],10.05%
same,Pass 1 (10^−5 M) % Inhibition,"Calcium Channel, Type N",11.51%
same,Pass 1 (10^−5 M) % Inhibition,"Angiotensin II, AT2",5.85%
same,inhibition at 10 µM,"Opiate, Delta 2",21.5%
same,Pass 1 (10^−5 M) % Inhibition,Acetylcholinesterase,8.18%
same,Pass 1 (10^−5 M) % Inhibition,"Opiate, Mu [11]",−4.22%
same,Pass 1 (10^−5 M) % Inhibition,"Purinergic, P2Y",16.43%
same,Ki,Dopamine Transporter,321 nM
same,inhibition at 10 µM,Dopamine Transporter; read-out: Pass 1 (10^−5 M) % Inhibition,91.4%
same,Pass 1 (10^−5 M) % Inhibition,[12],−14.06%
same,Pass 1 (10^−5 M) % Inhibition,[13],−10.37%
same,inhibition at 10 µM,"Cannabinoid, CB2",0.78%
same,Pass 1 (10^−5 M) % Inhibition,"Serotonin, 5HT2C",1.44%
same,inhibition at 10 µM,"Adrenergic, Alpha 2C",-5.94%
same,inhibition at 10 µM,"Serotonin, 5HT6",1.13%
same,inhibition at 10 µM,Thromboxane A2,22.1%
same,Pass 1 (10^−5 M) % Inhibition,[14],−19.14%
same,Pass 1 (10^−5 M) % Inhibition,[15],5.36%
